Experimental data reported in patent US6943183B2 (Pfizer Inc, priority 2000, dated 2005).

Biological target: T1, SF9 affinity purified rat FPT (Rattus norvegicus, UniProt Q02293+Q04631)
T1 construct: made in house; host or cells: Sf9 insect cells
Assay: PFT (FPT) inhibitory activity assay, radiolabeled farnesyl pyrophosphate and biotinyl peptide, streptavidin beads
Assay type: biochemical
Details: HEPES buffer pH 7.4, 30° C., 30 minutes; read-out: FTase IC50
Description: The PFT or FPT inhibitory activity of compounds of the present invention were assayed in HEPES buffer (pH 7.4) containing 5 mM potassium phosphate and 20 μM ZnCl2. The solution also contained 5 mM DTT (dithiothreitol), 5 mM MgCl2, and 0.1% PEG 8000. Assays were performed in 96 well plates (Wallec) and employed solutions composed of varying concentrations of a compound of the present invention in 10% DMSO (dimethylsulfoxide). […] After incubation at 30° C. for 30 minutes, the reaction was terminated by diluting the reaction 2.5-fold with a stop buffer containing 1.5 M magnesium acetate, 0.2 M H3PO4, 0.5% BSA (bovine serum albumin), and strepavidin beads (Amersham) at a concentration of 1.3 mg/mL. […] The assay was also carried out without 5 mM potassium phosphate.

Structure (SMILES) | IC50
O=C1CCCc2c1ccc(O[C@H](Cn1ccnc1)c1ccccc1)c2CNS(=O)(=O)c1ccc2ccccc2c1 [Compound 42f, Naphthalene-2-sulfonic acid [2-((S)-2-imidazol-1-yl-1-phenyl-ethoxy)-5-oxo-5,6,7,8-tetrahydro-naphthalen-1-ylmethyl]-amide; compound with trifluoro-acetic acid] | 4 nM
O=C1CCCc2c1ccc(O[C@H](Cn1ccnc1)c1ccccc1)c2CNS(=O)(=O)Cc1ccccc1 [Compound 42g] | 1.5 nM
O=C(NCc1c(O[C@H](Cn2ccnc2)c2ccccc2)ccc2c1CCCC2=O)c1ccccn1 [Compound 42h, Pyridine-2-carboxylic acid [2-((S)-2-imidazol-1-yl-1-phenyl-ethoxy)-5-oxo-5,6,7,8-tetrahydro-naphthalen-1-ylmethyl]-amide] | 8 nM
O=C(NCc1c(O[C@H](Cn2ccnc2)c2ccccc2)ccc2c1CCCC2=O)c1ccccc1 [Compound 42i, N-[2-((S)-2-Imidazol-1-yl-1-phenyl-ethoxy)-5-oxo-5,6,7,8-tetrahydro-naphthalen-1-ylmethyl]-benzamide] | 1.5 nM
CSCC[C@H](NC(=O)OC(C)(C)C)C(=O)NCc1c(O[C@H](Cn2ccnc2)c2ccccc2)ccc2c1CCCC2=O [Compound 42j, ((S)-1-{[2-((S)-2-Imidazol-1-yl-1-phenyl-ethoxy)-5-oxo-5,6,7,8-tetrahydro-napthalen-1-ylmethyl]-carbamoyl}-3-methylsulfanyl-propyl)-carbamic acid tert-butyl ester] | 4.4 nM
CSCC[C@H](N)C(=O)NCc1c(O[C@H](Cn2ccnc2)c2ccccc2)ccc2c1CCCC2=O [Compound 42k, (S)-2-Amino-N-[2-((S)-2-imidazol-1-yl-1-phenyl-ethoxy)-5-oxo-5,6,7,8-tetrahydro-naphthalen-1-ylmethyl]-4-methylsulfanyl-butyramide] | 16 nM
O=C1CCCc2c1ccc(O[C@H](Cn1ccnc1)c1ccccc1)c2CN1C(=O)c2ccccc2C1=O [Compound 43, 2-{[2-((1S)-2-imidazolyl-1-phenylethoxy)-5-oxo-6,7,8-trihydronaphenyl]methyl}isoindoline-1,3-dione] | 1.7 nM
O=C1CCCc2c1ccc(O[C@H](Cn1ccnc1)c1ccccc1)c2CCc1ccsc1 [Compound 44a, 6-((S)-2-Imidazol-1-yl-1-phenyl-ethoxy)-5-(2-thiophen-3-yl-ethyl)-3,4-dihydro-2H-naphthalen-1-one] | 0.87 nM
O=C1CCCc2c1ccc(O[C@H](Cn1ccnc1)c1ccccc1)c2CCCc1ccccc1 [Compound 44b, 6-((S)-2-Imidazol-1-yl-1-phenyl-ethoxy)-5-(3-phenyl-propyl)-3,4-dihydro-2H-naphthalen-1-one] | 3.1 nM
O=C1CCCc2c1ccc(O[C@H](Cn1ccnc1)c1ccccc1)c2Cc1ccccc1 [Compound 45, 6-((1S)-2-imidazolyl-1-phenylethoxy)-5-benzyl-2,3,4-trihydro-naphthalen-one] | 2 nM
O=C1CCCc2c1ccc(O[C@H](Cn1ccnc1)c1ccccc1)c2Oc1ccccc1 [Compound 46, 6-((1S)-2-imidazolyl-1-phenylethoxy)-5-phenoxy-2,3,4-trihydronaphthalen-1-one] | 37 nM
O=C1CCC(c2cccc(Cl)c2)c2cc(O[C@H](Cn3ccnc3)c3ccccc3)ccc21 (stereo partly drawn) [Compound 47, 6-((1S)-2-Imidazolyl-1-phenylethoxy)-4-(3-chlorophenyl)-2,3,4-trihydronaphthalen-1-one] | 2 nM
CCCc1c(OC(Cn2ccnc2)c2ccccc2)ccc2c1CCCC2=O (stereo not shown) [Compound 50, 6-(2-Imidazolyl-1-phenylethoxy)-5-propyl-2,3,4-trihydro-naphthalen-1-one] | 8 nM
C=CCc1c(O[C@H](Cn2ccnc2)c2ccccc2)ccc2c1CCCC2=O [Compound 51, 6-((1S)-2-Imidazolyl-1-phenylethoxy)-5-prop-2-enyl-2,3,4-trihydronaphthalen-1-one] | 3 nM
CCCc1c(O[C@H](Cn2ccnc2)c2ccccc2)ccc2c1CCCC2=O [Compound 53] | 5 nM
C=C(C)Cc1c(O[C@H](Cn2ccnc2)c2ccccc2)ccc2c1CCCC2=O [Compound 54, 6-((1S)-2-Imidazolyl-1-phenylethoxy)-5-(2-methylprop-2-enyl)-2,3,4-trihydronaphthalen-1-one] | 5 nM
CC(C)Cc1c(O[C@H](Cn2ccnc2)c2ccccc2)ccc2c1CCCC2=O [Compound 55, 6-((1S)-2-Imidazolyl-1-phenylethoxy)-5-(2-methylpropyl)-2,3,4-trihydronaphthalen-1-one] | 1 nM
C=CCc1c(O[C@H](Cn2ccnc2)c2ccccc2)ccc2c1CCC2=O [Compound 56] | 15 nM
CC(C)(Cn1ccnc1)Oc1ccc2c(c1CCc1ccccc1)CCCC2=O [Compound 58a, 6-[2-(1H-Imidazol-1-yl)-1,1-dimethylethoxy]-5-(2-phenylethyl)-3,4-dihydro-1(2H)-naphthalenone] | 1.6 nM
CCCc1c(S[C@H](Cn2ccnc2)c2ccccc2)ccc2c1CCCC2=O [Compound 62, 6-((1S)-2-imidazolyl-1-phenylethylthio)-5-propyl-2,3,4-trihydronaphthalen-1-one] | 10 nM
O=C1CCCc2c1ccc(S[C@H](Cn1ccnc1)c1ccccc1)c2CCc1ccccc1 [Compound 63] | 0.2 nM
CC(C)S(=O)(=O)Cc1c(O[C@H](Cn2ccnc2)c2cccnc2)ccc2c1CCCC2=O [Compound 63b, 6-((S)-2-Imidazol-1-yl-1-pyridin-3-yl-ethoxy)-5-(propane-2-sulfonylmethyl)-3,4-dihydro-2H-napthalen-1-one] | 0.94 nM
O=C1CCCc2c1ccc(O[C@H](Cn1ccnc1)c1cccnc1)c2CS(=O)(=O)c1ccccn1 [Compound 63ba, 6-((S)-2-Imidazol-1-yl-1-pyridin-3-yl-ethoxy)-5-(pyridin-2-ylsulfonylmethyl)-3,4-dihydro-2H-napthalen-1-one] | 0.16 nM
O=C1CCCc2c1ccc(O[C@H](Cn1ccnc1)c1cccnc1)c2CCc1ccccn1 [Compound 63c] | 0.3 nM
O=C1CCCc2c1ccc(O[C@H](Cn1ccnc1)c1cccnc1)c2NC(=O)c1nccc2ccccc12 [Compound 63d, Isoquinoline-1-carboxylic acid [2-((S)-2-imidazol-1-yl-1-pyridin-3-yl-ethoxy)-5-oxo-5,6,7,8-tetrahydro-naphthalen-1-yl]-amide] | 0.17 nM
O=C(Nc1c(O[C@H](Cn2ccnc2)c2cccnc2)ccc2c1CCCC2=O)c1cnccn1 [Compound 63e, Pyrazine-2-carboxylic acid [2-((S)-2-imidazol-1-yl-1-pyridin-3-yl-ethoxy)-5-oxo-5,6,7,8-tetrahydro-naphthalen-1-yl]-amide] | 9.7 nM
O=C1CCCc2c1ccc(O[C@H](Cn1ccnc1)c1cccnc1)c2NC(=O)c1cnnc2ccccc12 [Compound 63f, Cinnoline-4-carboxylic acid [2-((S)-2-imidazol-1-yl-1-pyridin-3-yl-ethoxy)-5-oxo-5,6,7,8-tetrahydro-naphthalen-1-yl]-amide] | 13 nM
CC(C)[C@@H](Cn1ccnc1)Oc1ccc2c(c1CS(=O)(=O)C(C)C)CCCC2=O [Compound 63g, 6-((S)-1-Imidazol-1-ylmethyl-2-methyl-propoxy)-5-(propane-2-sulfonylmethyl)-3,4-dihydro-2H-napthalen-1-one] | 9.5 nM
